{"source": "paper PMC5099944", "about": "“Design, synthesis and biological evaluation of hybrids of β-carboline and salicylic acid as potential anticancer and apoptosis inducing agents” (Scientific Reports, 2016)", "key": {"[1]": {"test_system": "Bax, Bcl-2, caspase-3, PARP in SMMC-7721 cells", "test": "Western blot assay of apoptosis-related proteins", "format": "cell-based, human", "experimental": "Next, to investigate the preliminarily molecular mechanisms underlying the cell apoptosis profiles in 8h-treated cells, we conducted western blot analysis to examine the expression of apoptosis proteins in SMMC-7721 cells. It is well known that Bcl-2 and Bax are anti-apoptotic or pro-apoptotic regulator proteins, respectively, and caspase-3 is the execution factor of apoptosis. In addition, PARP is one of several known cellular substrates for caspase-3 and the cleavage of PARP by caspase-3 is considered to be a hallmark of apoptosis.\nFigure 5 Effect of 8h on the expression of apoptosis-related proteins in SMMC-7721 cells. (A) The expression of Bax, Bcl2, caspase 3 and β-actin was examined by western blot analysis. SMMC-7721 cells were incubated with, or without, 8h at the indicated concentrations for 48 h and the levels of protein expression were detected using specific antibodies, and β-actin was used as the control. Data shown are representative images of each protein for three separate experiments. (B) Quantitative analysis: the relative levels of each protein compared to control β-actin were determined by densimetric scanning. Data are expressed as means ± SD from three separate experiments. *P < 0.01 vs control.\nThe mechanisms of the cell apoptosis were determined by western blot assay. SMMC-7721 cells at 1.5 × 10^5/mL were treated with 3.5, 7.0, or 14 μM 8h or vehicle control for […]. After harvested and lyzed, the cell lysates (50 μg/lane) were separated by SDS-PAGE (12% gel) and transferred onto nitrocellulose membranes. After blocked with 5% fat-free milk, the target proteins were probed with anti-Bcl-2, anti-Bax, anti-caspase-3, anti-PARP, and anti-β-actin antibodies (Cell Signaling, Boston), respectively. The bound antibodies were detected by HRP-conjugated second antibodies and visualized using the enhanced chemiluminescent reagent."}, "Hep G2 cells": {"test_system": "Hep G2 cells", "test": "MTT assay, proliferation of Hep G2 cells", "format": "cell-based", "conditions": "Homo sapiens, HepG2, 48 h, read-out: In vitro cytotoxicity (IC50) Hep G2", "experimental": "The in vitro antitumor activities of the synthesized compounds 7a-l and 8a-l against five human cancer cells were evaluated in MTT assays using 5-fluorouracil (5-FU) and harmine as positive controls. These cells are human hepatocellular carcinoma cells (SMMC-7721 and Hep G2), human colon cancer cell lines (HCT116), human bladder carcinoma cells (EJ), and human lung cancer cells (H460).\nHepatocellular carcinoma cells (SMMC-7721 and Hep G2), Human colon cancer cell lines (HCT116), human bladder carcinoma cells (EJ) or human lung cancer cells (H460) at 10^4 cells per well were cultured in 10% FBS DMEM in 96-well flat-bottom microplates overnight. The cells were incubated in triplicate with, or without, different concentrations of each test compound for 48 h. During the last 4 h incubation, 30 μL of tetrazolium dye (MTT) solution (5 mg mL^−1) was added to each well. The resulting MTT-formazan crystals were dissolved in 150 μL DMSO, and absorbance was measured spectrophotometrically at 570 nm using an ELISA plate reader. The inhibition induced by each test compound at the indicated concentrations was expressed as a percentage. The concentration required for 50% inhibition (IC50) was calculated using the software (GraphPadPrism Version 4.03)."}, "[2]": {"conditions": "western blot, 3.5, 7.0 or 14 μM"}}, "data": [{"smiles": "Cc1nc(C(=O)NCCCCCNC(=O)c2ccccc2O)cc2c1[nH]c1ccccc12", "note": "[8h, N-(5-(2-Hydroxybenzamido)pentyl)-1-methyl-9H-pyrido[3,4-b]indole-3-carboxamide]", "values": [{"measurement": "Expression of Bcl-2", "setting": "[1]; [2]", "value": "dramatically reduced in a concentration-dependent manner"}, {"measurement": "Protein levels of Bax", "setting": "[1]; [2]", "value": "significantly increased"}, {"measurement": "Cleavage of PARP and caspase-3", "setting": "[1]; western blot, vs control group", "value": "more significant cleavage of both PARP and caspase-3 than the control group"}, {"measurement": "IC50", "setting": "Hep G2 cells", "value": 7.12, "unit": "µM"}]}]}
